Results reported in patent publication US5510340A, “Antihypercholesterolemic compounds and related pharmaceutical compositions and methods of use” (SRI International, priority 1992, dated 1996).

What was measured:
[1] = system: Cholesterol Biosynthesis in CHO Cells; assay: In Vitro Assay for Inhibition of Cholesterol Biosynthesis in CHO Cells; assay type: cell-based, Chinese Hamster; conditions: Cricetulus griseus, 14C-acetate incorporation into cholesterol, 16-18 h incubation with compound
Method: Chinese Hamster ovary (CHO) cells were seeded at 1×10^5 cells per 60-mm Petri dish and incubated at 37° C. in F-12 medium supplemented with fetal calf serum (5%). After 24 h, the medium was aspirated and replaced with delipidated calf serum in F-12 medium containing the test compounds. At various concentrations, either ethanol or dimethyl sulfoxide was used to dissolve the test compounds to a final concentration of 0.1% in the cell medium. Controls contained the vehicle alone. After incubation for 16-18 h, ^14 C-acetate (20 μM final concentration) was added and incubation continued for 5.5 h. […] The cells were then scraped off the plates with a rubber policeman into saline (2 mL). An aliquot for protein was taken, and the remainder of the cell suspension was centrifuged at 800×g for 10 min. The supernatant was discarded and the pellet extracted by vortexing 15 s in chloroform:methanol (2 mL of 2:1). […] NaCl (0.4 mL) was added, vortexed, and centrifuged, and the top layer was discarded. A portion of the upper phase mixture of chloroform:methanol:water (0.4 mL of 3:48:47) was added and gently swirled to avoid mixing with the bottom layer. The resultant samples were centrifuged, and the top layer was discarded. The procedure was repeated before methanol was finally added to combine the two layers and the solvent was evaporated. Chloroform (200 μL) was added to the residue and an aliquot (150 μL) taken. To the aliquot was added cholesterol (40 μg in 20 μL), and the samples were concentrated. The lipids were dissolved in chloroform (50 μL) and spotted on silica gel G thin-layer chromatography plates. After development in hexane:ether:acetic acid (80:20:1), the ^14 C-cholesterol spot was located with iodine vapor and scraped into a scintillation vial, and the radioactivity was counted with a scintillation counter.

[2] = system: Cholesterol Levels in Plasma of Rats; assay: Assay for Lowering Cholesterol Levels in Rats with Oral Administration of Test Compound 15; assay type: in vivo, Male Sprague-Dawley rats; conditions: rat plasma, gavage, mean ± S.E.
Method: Male Sprague-Dawley rats weighing 120 to 150 g were used. The animals were placed on a cholesterol-free diet immediately upon arrival and housed in a room with a reverse light cycle. One week after they had adapted to the light cycle, the experiment was begun by gavaging the animals three times daily with various amounts of test compound 13 suspended in 1.0 mL of saline. The control group received 1.0 mL of saline alone. On the seventh day of the experiment, sodium 1-^14 C! acetate (20 μCi/rat) was injected intraperitoneally 30 min after the oral administration (gavage) of test compounds and 2 h before the mid-dark point in the diurnal cycle; 4 h after the ^14 C-acetate injection, the animals were killed and blood samples were collected after decapitation. Plasma was obtained by centrifuging blood in an EDTA-treated centrifuge tube at 3000 rpm for 10 min. Cholesterol synthesis was measured by determining the level of ^14 C-labeled nonsaponifiable lipid present in 1.0 mL of plasma; 1.0 mL of plasma was first mixed with 1.0 mL of saline, followed by 5.0 mL of 10% KOH in absolute ethanol. Samples were saponified at 75° C. for 1 h. After cooling, 44,000 dpm, 0.5 nmol of 1,2-^3 H! cholesterol was added to each sample as an internal standard for calculating recovery through the extraction procedure. Samples were extracted once with 5 mL of petroleum ether, and the organic phase was backwashed with 5 mL of saline. The extracts were dried on a nitrogen evaporator, and the residue was reconstituted into 0.5 mL of CHCl3 -MeOH (2:1). The 0.5-mL reconstituted samples were transferred into counting vials containing 2 mL of ethanol, and both ^3 H and ^14 C were counted in 10 mL of scintillation fluid. The ^3 H-cholesterol internal standard recovery value from each sample was used to correct each sample to 100% recovery of ^14 C-cholesterol. The total cholesterol level and HDL in each plasma sample was also measured. The comparison between test groups and the control group was evaluated for both cholesterol levels and ^14 C-acetate incorporation.
(c.) Assay for Lowering Cholesterol Levels in Rats with Oral Administration of Test Compound 15:
The experiment was carried out as described in (b.). However, in this experiment, blood was drawn on days 0, 3 and 7. Total cholesterol levels and HDL were measured on these blood samples.

`C[C@H](CCCC(C)(C)O)[C@H]1CC[C@H]2[C@@H]3CC=C4C[C@@H](O)CC[C@]4(C)[C@H]3CC[C@]12C` gave an IC50 [1] of 350 nM.

Molecule `CC(C)CCC[C@@H](C)[C@H]1CC(=O)C2=C3[C@H](O)C[C@H]4C[C@@H](O)CC[C@]4(C)[C@H]3CC[C@@]21C` has an IC50 [1] of 1600 nM.

In the case of `CC(C)CCC[C@@H](C)[C@H]1C[C@H]2C3=C4[C@@H](C[C@H]5C[C@@H](O)CC[C@]5(C)[C@H]4CC[C@@]31C)n1c(=O)c3ccccc3c(=O)n12`, the IC50 [1] is reported as 2100 nM.

For `CCOC(=O)N1[C@@H]2C[C@H]3C[C@@H](O)CC[C@]3(C)[C@H]3CC[C@@]4(C)C(=C23)[C@H](C[C@@H]4[C@H](C)CCCC(C)C)N1C(=O)OCC`, the IC50 [1] was 800 nM.

Molecule `CCOC(=O)N1[C@@H]2C[C@H]3C[C@@H](OC(=O)c4ccccc4)CC[C@]3(C)[C@H]3CC[C@@]4(C)C(=C23)[C@H](C[C@@H]4[C@H](C)CCCC(C)C)N1C(=O)OCC` has an IC50 [1] of 1300 nM.

Molecule `CC(C)CCC[C@@H](C)[C@H]1C[C@H]2C3=C4[C@@H](C[C@H]5C[C@@H](O)CC[C@]5(C)[C@H]4CC[C@@]31C)N(C)N2C` has an IC50 [1] of 1600 nM.

For `C[C@H](CCCC(C)(C)O)[C@H]1Cc2nnc3c4c2[C@]1(C)CC[C@@H]4[C@@]1(C)CC[C@H](O)C[C@@H]1C3`, the IC50 [1] was 3400 nM.

`C[C@H](CCCC(C)(C)F)[C@H]1Cc2nnc3c4c2[C@]1(C)CC[C@@H]4[C@@]1(C)CC[C@H](O)C[C@@H]1C3` was tested, and the IC50 [1] was 160 nM.

For `CC(C)[C@@H](C)/C=C/[C@@H](C)[C@H]1Cc2nnc3c4c2[C@]1(C)CC[C@@H]4[C@@]1(C)CC[C@H](O)C[C@@H]1C3`, the IC50 [1] was 110 nM.

`CC(C)CCC[C@@H](C)[C@H]1C[C@H](O)C2=C3C(=O)C[C@H]4C[C@@H](O)CC[C@]4(C)[C@H]3CC[C@@]21C` gave an IC50 [1] of 1100 nM.

`CC(C)CCC[C@@H](C)[C@H]1C[C@H](O)C2=C3C(=O)C[C@H]4C[C@@H](OC(=O)c5ccccc5)CC[C@]4(C)[C@H]3CC[C@@]21C` was tested, and the IC50 [1] was 3500 nM.

With `CO[C@@H]1C[C@H]([C@H](C)CCCC(C)C)[C@@]2(C)CC[C@H]3C(=C12)CC[C@H]1C[C@@H](O)CC[C@@]13C` the IC50 [1] was 900 nM.

Molecule `CC(C)CCC[C@@H](C)[C@H]1CC(=O)C2=C3[C@H](F)C[C@H]4C[C@@H](OC(=O)c5ccccc5)CC[C@]4(C)[C@H]3CC[C@@]21C` has an IC50 [1] of 200 nM.

In the case of `CC(C)CCC[C@@H](C)[C@H]1Cc2n[n+]([O-])c3c4c2[C@]1(C)CC[C@@H]4[C@@]1(C)CC[C@H](O)C[C@@H]1C3`, the IC50 [1] is reported as < 250 nM.

`CC(C)CCC[C@@H](C)[C@H]1Cc2cnc3c4c2[C@]1(C)CC[C@@H]4[C@@]1(C)CC[C@H](O)C[C@@H]1C3` [Compound 15, pyridino 2',3',4',5':7,8,14,15!cholestan-3β-ol] was tested, and the “Cholesterol Levels, HDL” value ([2]; Day 0, 0.16 mg/rat/day, control 42.2 ± 4.40) was 39.6 ± 2.06 Mg/100 mL, the “Cholesterol Levels, Total” value ([2]; Day 0, 0.16 mg/rat/day, control 95.8 ± 9.79) was 94.8 ± 5.5 Mg/100 mL and the “Cholesterol Levels, HDL” value ([2]; Day 0, 0.33 mg/rat/day, control 42.2 ± 4.40) was 35.8 ± 1.91 Mg/100 mL. The “Cholesterol Levels, Total” value ([2]; Day 0, 0.33 mg/rat/day, control 95.8 ± 9.79) was 99.0 ± 3.7 Mg/100 mL, the “Cholesterol Levels, HDL” value ([2]; Day 0, 1.0 mg/rat/day, control 42.2 ± 4.40) was 37.8 ± 3.01 Mg/100 mL and the “Cholesterol Levels, Total” value ([2]; Day 0, 1.0 mg/rat/day, control 95.8 ± 9.79) was 88.8 ± 7.78 Mg/100 mL. For the same molecule, the “Cholesterol Levels, HDL” value ([2]; Day 0, 3.0 mg/rat/day, control 42.2 ± 4.40) was 35.2 ± 3.14 Mg/100 mL, the “Cholesterol Levels, Total” value ([2]; Day 0, 3.0 mg/rat/day, control 95.8 ± 9.79) was 85.6 ± 6.57 Mg/100 mL and the “Cholesterol Levels, HDL” value ([2]; Day 3, 0.16 mg/rat/day, control 41.6 ± 2.62) was 36.4 ± 1.36 Mg/100 mL. The “Cholesterol Levels, Total” value ([2]; Day 3, 0.16 mg/rat/day, control 85.2 ± 2.95) was 83.6 ± 3.56 Mg/100 mL, the “Cholesterol Levels, HDL” value ([2]; Day 3, 0.33 mg/rat/day, control 41.6 ± 2.62) was 35.8 ± 2.40 Mg/100 mL and the “Cholesterol Levels, Total” value ([2]; Day 3, 0.33 mg/rat/day, control 85.2 ± 2.95) was 75.6 ± 1.94 Mg/100 mL. The “Cholesterol Levels, HDL” value ([2]; Day 3, 1.0 mg/rat/day, control 41.6 ± 2.62) was 34.4 ± 1.69 Mg/100 mL, the “Cholesterol Levels, Total” value ([2]; Day 3, 1.0 mg/rat/day, control 85.2 ± 2.95) was 78.8 ± 2.86 Mg/100 mL and the “Cholesterol Levels, HDL” value ([2]; Day 3, 3.0 mg/rat/day, control 41.6 ± 2.62) was 29.6 ± 0.98 Mg/100 mL. For the same molecule, the “Cholesterol Levels, Total” value ([2]; Day 3, 3.0 mg/rat/day, control 85.2 ± 2.95) was 72.2 ± 2.95 Mg/100 mL, the “Cholesterol Levels, HDL” value ([2]; Day 7, 0.16 mg/rat/day, control 49.6 ± 4.01) was 39.8 ± 1.02 Mg/100 mL and the “Cholesterol Levels, Total” value ([2]; Day 7, 0.16 mg/rat/day, control 84.8 ± 4.40) was 69.4 ± 3.66 Mg/100 mL. For the same molecule, the “Cholesterol Levels, HDL” value ([2]; Day 7, 0.33 mg/rat/day, control 49.6 ± 4.01) was 36.0 ± 2.55 Mg/100 mL, the “Cholesterol Levels, Total” value ([2]; Day 7, 0.33 mg/rat/day, control 84.8 ± 4.40) was 57.6 ± 2.89 Mg/100 mL and the “Cholesterol Levels, HDL” value ([2]; Day 7, 1.0 mg/rat/day, control 49.6 ± 4.01) was 25.0 ± 1.87 Mg/100 mL. The “Cholesterol Levels, Total” value ([2]; Day 7, 1.0 mg/rat/day, control 84.8 ± 4.40) was 58.0 ± 4.06 Mg/100 mL, the “Cholesterol Levels, HDL” value ([2]; Day 7, 3.0 mg/rat/day, control 49.6 ± 4.01) was 15.4 ± 1.40 Mg/100 mL and the “Cholesterol Levels, Total” value ([2]; Day 7, 3.0 mg/rat/day, control 84.8 ± 4.40) was 46.4 ± 2.23 Mg/100 mL.

Work on `CC(C)CCC[C@@H](C)[C@H]1CC(=O)C2=C3CC[C@H]4C[C@@H](O)CC[C@]4(C)[C@H]3CC[C@@]21C` [drawing 26] yielded an IC50 [1] of 1400 nM.

For `CC(C)CCC[C@@H](C)[C@H]1Cc2nnc3c4c2[C@]1(C)CC[C@@H]4[C@@]1(C)CC[C@H](O)C[C@@H]1C3` [drawing 35], the IC50 [1] was 90 nM.
